Results on 25 compounds are retold here after ChEMBL document CHEMBL1155405, “Rigidified 2-aminopyrimidines as histamine H4 receptor antagonists: effects of substitution about the rigidifying ring” (Bioorg Med Chem Lett, 2010).

For series [1], the target named is Histamine H4 receptor (Rattus norvegicus) (UniProt Q91ZY1). The series can be described thus: Antagonist activity at rat histamine H4 receptor assessed as decrease in intracellular calcium by FLIPR relative to histamine. It counts as functional, cell-based. More on the design: concentration or dose not given beside the values. Background: Calcium assays in cells follow changes in intracellular calcium, usually with a dye or a luminescent sensor.

In series [2] the target is T1, Histamine H4 receptor (Homo sapiens, UniProt Q9H3N8). The following applies: HEK293.
Series [3] deals with Histamine H4 receptor (Rattus norvegicus) (UniProt Q91ZY1). Put plainly: Antagonist activity at rat histamine H4 receptor assessed as decrease in intracellular calcium by FLIPR. It is filed as functional, cell-based.
For series [4], the target named is Histamine H3 receptor (Rattus norvegicus, UniProt Q9QYN8). Put plainly: Displacement of [3H]NAMH from rat histamine H3 receptor expressed in C6 cells after 1 hr by liquid scintillation counting. It is filed as cell-based. Background: Loss of bound radioactivity is the signal in a displacement assay; it reports binding, not function.
For series [5], the target named is T2, Histamine H4 receptor (Mus musculus) (UniProt Q91ZY2).
T2 sequence (whole entry): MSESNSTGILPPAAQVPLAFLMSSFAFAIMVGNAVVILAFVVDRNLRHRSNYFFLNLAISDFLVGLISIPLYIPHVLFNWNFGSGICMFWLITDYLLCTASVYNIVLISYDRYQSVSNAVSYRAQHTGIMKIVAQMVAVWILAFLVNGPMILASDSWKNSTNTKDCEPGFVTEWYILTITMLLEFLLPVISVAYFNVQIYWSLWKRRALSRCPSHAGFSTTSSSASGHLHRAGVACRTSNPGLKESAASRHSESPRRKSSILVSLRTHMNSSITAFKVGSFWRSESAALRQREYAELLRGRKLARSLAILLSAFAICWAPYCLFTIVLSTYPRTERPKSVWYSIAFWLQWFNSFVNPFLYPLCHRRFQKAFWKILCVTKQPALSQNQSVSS
Put plainly: Antagonist activity at mouse histamine H4 receptor assessed as decrease in intracellular calcium by FLIPR. It is filed as functional, cell-based.

A further series has as its system Mus musculus. The series can be described thus: Inhibition of clobenpropit-induced scratching in hind paw of ip dosed mouse administered 30 mins before. It is filed as functional.
The target in series [6] is Histamine H3 receptor (Homo sapiens, UniProt Q9Y5N1). Put plainly: Displacement of [3H]NAMH from human histamine H3 receptor expressed in C6 cells after 1 hr by liquid scintillation counting. It is filed as cell-based.
Series [7] can be described thus: Lipophilicity, log D at pH7.5. The following applies: buffer, pH 7.5. It is filed as physicochemical.
For series [8], the target named is Histamine H4 receptor (Rattus norvegicus, UniProt Q91ZY1). Put plainly: Displacement of [3H]-histamine from rat histamine H4 receptor after 1 hr by liquid scintillation counting.
For series [9], the target named is T1, Histamine H4 receptor. The series can be described thus: Displacement of [3H]-histamine from human histamine H4 receptor expressed in HEK293 cells after 1 hr by liquid scintillation counting. It counts as cell-based.
Series [10] concerns the target T1, Histamine H4 receptor. The series can be described thus: Agonist activity at human histamine H4 receptor expressed in HEK293 cells coexpressing Galphaqi5 assessed as increase in intracellular calcium by FLIPR relative to histamine.

Chain of Histamine H4 receptor (Rattus norvegicus) (Q91ZY1 whole entry): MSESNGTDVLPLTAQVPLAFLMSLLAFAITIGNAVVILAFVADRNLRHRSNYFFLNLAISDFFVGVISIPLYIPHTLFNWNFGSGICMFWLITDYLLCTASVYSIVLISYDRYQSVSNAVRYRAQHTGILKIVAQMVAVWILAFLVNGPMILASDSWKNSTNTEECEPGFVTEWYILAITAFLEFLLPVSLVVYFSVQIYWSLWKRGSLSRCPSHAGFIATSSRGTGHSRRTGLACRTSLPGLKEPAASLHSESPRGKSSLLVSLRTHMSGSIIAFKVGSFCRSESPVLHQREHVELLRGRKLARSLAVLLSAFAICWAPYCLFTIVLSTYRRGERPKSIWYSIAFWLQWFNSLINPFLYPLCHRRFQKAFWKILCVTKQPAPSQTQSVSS
Chain of Histamine H4 receptor (Rattus norvegicus, UniProt Q91ZY1) (Q91ZY1 whole entry): as above
Chain of Histamine H3 receptor (Homo sapiens, UniProt Q9Y5N1) (Q9Y5N1 whole entry): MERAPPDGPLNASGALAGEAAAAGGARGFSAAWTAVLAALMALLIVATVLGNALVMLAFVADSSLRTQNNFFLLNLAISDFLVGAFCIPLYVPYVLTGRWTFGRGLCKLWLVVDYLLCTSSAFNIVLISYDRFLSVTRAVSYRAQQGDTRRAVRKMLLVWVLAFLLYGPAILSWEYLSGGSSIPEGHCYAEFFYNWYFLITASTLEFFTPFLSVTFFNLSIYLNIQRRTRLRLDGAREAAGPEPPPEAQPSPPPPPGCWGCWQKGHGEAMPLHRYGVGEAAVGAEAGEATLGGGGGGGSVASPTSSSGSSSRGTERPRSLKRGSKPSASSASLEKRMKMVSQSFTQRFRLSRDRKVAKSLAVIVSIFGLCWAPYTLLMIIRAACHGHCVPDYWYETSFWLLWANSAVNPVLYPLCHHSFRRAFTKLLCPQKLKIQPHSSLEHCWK
Chain of Histamine H3 receptor (Rattus norvegicus, UniProt Q9QYN8) (Q9QYN8 whole entry): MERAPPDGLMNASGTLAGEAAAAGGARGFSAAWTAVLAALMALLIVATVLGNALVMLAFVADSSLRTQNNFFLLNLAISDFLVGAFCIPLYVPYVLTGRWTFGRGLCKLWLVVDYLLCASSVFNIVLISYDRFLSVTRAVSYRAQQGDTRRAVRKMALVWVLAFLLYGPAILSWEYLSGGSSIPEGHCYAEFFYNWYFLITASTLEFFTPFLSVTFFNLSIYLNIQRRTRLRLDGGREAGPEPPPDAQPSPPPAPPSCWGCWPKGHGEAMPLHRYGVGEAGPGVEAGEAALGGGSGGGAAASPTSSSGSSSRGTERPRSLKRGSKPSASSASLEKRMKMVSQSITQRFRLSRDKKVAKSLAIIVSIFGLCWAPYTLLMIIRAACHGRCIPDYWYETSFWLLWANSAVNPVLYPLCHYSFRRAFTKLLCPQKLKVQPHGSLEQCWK
T1 sequence (Q9H3N8 whole entry): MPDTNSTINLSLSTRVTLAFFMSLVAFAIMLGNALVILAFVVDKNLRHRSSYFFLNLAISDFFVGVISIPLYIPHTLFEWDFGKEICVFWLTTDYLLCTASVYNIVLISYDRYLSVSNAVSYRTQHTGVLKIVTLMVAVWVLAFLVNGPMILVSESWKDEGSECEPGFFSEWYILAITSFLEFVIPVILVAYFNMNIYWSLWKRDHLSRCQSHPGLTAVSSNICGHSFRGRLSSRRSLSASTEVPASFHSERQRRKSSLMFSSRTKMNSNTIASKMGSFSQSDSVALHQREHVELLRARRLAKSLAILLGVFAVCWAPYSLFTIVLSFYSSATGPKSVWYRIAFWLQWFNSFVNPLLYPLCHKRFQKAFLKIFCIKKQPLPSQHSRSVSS

As to `Nc1nc(N2C[C@H]3CNC[C@H]3C2)c2c(n1)C1(CCCC1)CCC2` (stereo in doubt; 33), the Activity in series [1] is 53%. Further, the pKb worked out at 5.96 at Histamine H4 receptor [2] and 5.13 in series [3].

As to `Nc1nc(N2CC[C@@H](N)C2)c2c(n1)C1(CCCC1)CCC2`, the Activity in [1] was 71%. In addition, the pKb at Histamine H4 receptor [2] was determined as 8.57; in [3], 6.76; in series [5] it was 7.82. Besides, the results for the Ki on Histamine H3 receptor [4] and on Histamine H3 receptor [6] were 79.4 nM and 295 nM, respectively. The compound also returned an ED50 in the series on Mus musculus of 1 µmol/kg.

In the case of `CNC1CN(c2nc(N)nc3c2CCCC32CCCC2)C1`, in [7], the logD came out at 1.6. In addition, the Activity in [1] turned out to be 46%. The results for the pKb (at Histamine H4 receptor [2]; in [3]) were 8.34 and 7.6, respectively. Moreover, the Ki was 1.45 nM on Histamine H4 receptor [8], 6.76 nM at Histamine H3 receptor [4], 63.1 nM at Histamine H3 receptor [6] and 1.51 nM on Histamine H4 receptor [9].

With `CN[C@@H]1CCN(c2nc(N)nc3c2CCCC32CCCC2)C1`, in [1], the Activity worked out at 58%. Further, the pKb at Histamine H4 receptor [2] was 8.54; in [3], 7.48. Besides, the Ki on Histamine H4 receptor [8] is 2.63 nM; on Histamine H3 receptor [4], 72.4 nM; on Histamine H3 receptor [6], 105 nM; on Histamine H4 receptor [9], 2 nM.

Turning to `Nc1nc2c(c(N3C[C@H]4CCCN[C@H]4C3)n1)CCCCC2c1ccccc1` (stereo not given in full), the pKb on Histamine H4 receptor [2] worked out at 7.88; in [3], 8.24; in series [5], 7.9. The compound further registered a 50% effective dose (ED50) in the series with Mus musculus of 3 µmol/kg.

On to `Nc1nc(N2CC[C@H](N)C2)c2c(n1)C1(CCCC1)CCC2`, for which the Activity in [1] was found to be 63%. The pKb was 7.28 on Histamine H4 receptor [2] and 6.87 in [3].

In the case of `Nc1nc(N2CCNCC2)c2c(n1)C1(CCC2)Cc2ccccc2C1`, the values for the Activity (in series [1]; at Histamine H4 receptor [10]) were 135% and 49%, respectively. In addition, the pKb on Histamine H4 receptor [2] was 4.57; in series [3], 4.86.

In series [7], `CNC1CN(c2nc(N)nc3c2CCCCC3c2ccccc2)C1` (stereo not given) yielded a pH-dependent lipophilicity (logD) of 2.05.

As to `Nc1nc(N2CCC(N)(C(=O)O)CC2)c2c(n1)C1(CCCC1)CCC2`, the pKb on Histamine H4 receptor [2] is less than 4.67; in series [3], less than 4.68.

For `Nc1nc2c(c(N3CC4CCCNC4C3)n1)CCCCC2c1ccccc1` (stereo not given), at Histamine H4 receptor [2], the pKb came out at 7.59. Also, the Ki on Histamine H4 receptor [8] was 2.69 nM; on Histamine H4 receptor [9], 7.08 nM.

Turning to `CN(C)CCOc1nc(N)nc2c1CCCC21CCCC1`, the Activity in series [1] stood at 88%. In addition, the pKb is 8.11 on Histamine H4 receptor [2] and less than 6 in [3].

As for `Nc1nc2c(c(N3CCNCC3)n1)CCCCC2c1ccccc1` (stereo not given), in series [7], the pH-dependent lipophilicity (logD) is 1.73. The results for the pKb (on Histamine H4 receptor [2]; in [3]; in series [5]) were 7.24, 7.26 and 7.34, respectively. Also, the inhibition constant (Ki) on Histamine H3 receptor [4] was 661 nM; at Histamine H3 receptor [6] it was 2240 nM. In the series on Mus musculus, this compound came in with an ED50 of 10 µmol/kg.

In the case of `Nc1nc(N2CC[C@@H](N)C2)c2c(n1)C1(CCCCC1)CCC2`, the Activity in [1] came to 84%. Besides, the results for the negative-log Kb (pKb) (at Histamine H4 receptor [2]; in series [3]) were 7.33 and less than 4.96, respectively.

On to `Nc1nc(N2C[C@H]3CNC[C@H]3C2)c2c(n1)C1(CCCC1)CCC2` (stereo in doubt; 34), for which the Activity in series [1] was 48%. Also, the pKb worked out at 5.99 at Histamine H4 receptor [2] and 5.65 in series [3].

On to `Nc1nc(N2CC[C@@H](N)C2)c2c(n1)C1(CCC2)Cc2ccccc2C1`, for which the results for the pKb (at Histamine H4 receptor [2]; in series [3]) were 6.3 and 6.09, respectively.

Take `Nc1nc(N2CC(N)C2)c2c(n1)C1(CCCC1)CCC2`: the Activity in [1] was determined as 48%. The pKb on Histamine H4 receptor [2] is less than 4.16; in series [3] it was 4.63.

As to `CN1CCC(Nc2nc(N)nc3c2CCCC32CCCC2)CC1`, the Activity in series [1] amounted to 84%. The negative-log Kb (pKb) at Histamine H4 receptor [2] came out at 7.66; in series [3], 6.9.

As to `Nc1nc(N2C[C@H]3CCCN[C@H]3C2)c2c(n1)C1(CCCCC1)CCC2`, the Activity in series [1] came out at 50%. For the same compound, the negative logarithm of the Kb (pKb) at Histamine H4 receptor [2] was 7; in series [3], 5.81.

Regarding `COC(=O)C1(N)CCN(c2nc(N)nc3c2CCCC32CCCC2)CC1`, the Activity in series [1] worked out at 52%. Also, the pKb at Histamine H4 receptor [2] is 4.9; in series [3], 4.77.

Turning to `Nc1nc(N2CCCNCC2)c2c(n1)C1(CCCC1)CCC2`, the Activity in series [1] turned out to be 77%. The results for the pKb (at Histamine H4 receptor [2]; in [3]) were 8.01 and less than 5.32, respectively.

Regarding `Nc1nc(N2CCNCC2)c2c(n1)C1(CCCCC1)CCC2`, in [1], the Activity is 105%. Also, the pKb was 7.32 at Histamine H4 receptor [2] and less than 4.86 in [3].

Regarding `Nc1nc(N2C[C@H]3CCCN[C@H]3C2)c2c(n1)C1(CCCC1)CCC2`, the Activity in series [1] was determined as 35%. Further, the results for the pKb (at Histamine H4 receptor [2]; in series [3]) were 8.07 and less than 6.6, respectively.

Turning to `CN[C@@H]1CCN(c2nc(N)nc3c2CCCC(c2ccccc2)C3)C1` (stereo not given in full), the inhibitory constant (Ki) was 105 nM at Histamine H3 receptor [4] and 224 nM on Histamine H3 receptor [6].

On to `CN1CCC(Oc2nc(N)nc3c2CCCC32CCCC2)CC1`, for which the Activity in [1] worked out at 86%. In addition, the results for the negative logarithm of the Kb (pKb) (at Histamine H4 receptor [2]; in [3]) were 7.7 and less than 5.48, respectively.

Regarding `Nc1nc(N2CCNCC2)c2c(n1)C1(CCCC1)CCC2`, the logD in series [7] worked out at 2.2. In [1], the Activity stood at 87%. Besides, the results for the pKb (on Histamine H4 receptor [2]; in series [3]) were 8.56 and 5.42, respectively.

What is called pKb is the Kb on a negative log10 scale, so that one unit is a factor of ten. What is called Ki is the equilibrium dissociation constant of an inhibitor or competing ligand from its target. By ED50 is commonly meant the midpoint of the dose-response relation. The logD is the decadic logarithm of the distribution of all forms, ionised or not, between an organic phase and buffer at a given pH.
